The test addresses T1, Platelet-activating factor acetylhydrolase (Homo sapiens, UniProt Q13093).
T1 sequence (Q13093 whole entry): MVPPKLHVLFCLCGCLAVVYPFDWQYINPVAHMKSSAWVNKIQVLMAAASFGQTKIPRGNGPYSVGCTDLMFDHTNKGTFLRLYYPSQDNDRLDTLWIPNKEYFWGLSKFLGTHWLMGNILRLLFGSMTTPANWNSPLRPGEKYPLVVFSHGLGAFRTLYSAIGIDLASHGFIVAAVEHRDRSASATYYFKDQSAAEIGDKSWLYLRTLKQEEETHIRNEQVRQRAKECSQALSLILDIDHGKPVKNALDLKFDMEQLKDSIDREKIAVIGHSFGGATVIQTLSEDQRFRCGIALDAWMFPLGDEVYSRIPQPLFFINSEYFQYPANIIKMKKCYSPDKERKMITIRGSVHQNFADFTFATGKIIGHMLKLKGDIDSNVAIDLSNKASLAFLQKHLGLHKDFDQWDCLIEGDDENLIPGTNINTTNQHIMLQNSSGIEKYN
Put plainly: In vitro inhibitory activity against human lipoprotein-associated phospholipase A2; NA - not active.

`O=C(ON=C(c1ccccc1)c1ccccc1)c1ccccc1` [(DIPHENYLMETHYLIDENE)AMINO BENZOATE]: the IC50 entry was “Not Active”.
